Results on one molecule are retold here after paper PMC10249021 (Journal of the American Chemical Society, 2020).

The nature of the data set: Thermal stability of oxytocin and analogues at 50 °C by LCMS analysis. Type of data set: physicochemical. To be noted: thermal degradation in water at 50 °C; read-out LCMS analysis.

Structures are written as SMILES.

On to `CC[C@H](C)[C@@H]1NC(=O)[C@H](Cc2ccc(O)cc2)NC(=O)[C@@H](N)CSSC[C@@H](C(=O)N2CCC[C@H]2C(=O)N[C@@H](CC(C)C)C(=O)NCC(N)=O)NC(=O)[C@H](CC(N)=O)NC(=O)[C@H](CCC(N)=O)NC1=O` [oxytocin], for which the “half-life (thermal stability)” value stood at 93.6 h.
